Results as given in US5945539A, “Oxazole derivatives and use thereof” (Japan Tobacco, Inc., priority 1994, dated 1999).
Like-named read-outs stand apart in the source and are kept apart here.

Tests used:
[1] = target: T1, cyclooxygenase-1 (COX-1) (Ovis aries, UniProt P05979); test: inhibitory activity on cyclooxygenase-1 (Experimental Example 1-1, sheep seminal vesicle microsome fraction); type: biochemical; details: for IC50: sheep seminal vesicle COX-1, pH 8, 24° C.; for inhibition at 100 µM: sheep seminal vesicle COX-1, inhibition at 100 μM test compound
T1 sequence (P05979 25-600): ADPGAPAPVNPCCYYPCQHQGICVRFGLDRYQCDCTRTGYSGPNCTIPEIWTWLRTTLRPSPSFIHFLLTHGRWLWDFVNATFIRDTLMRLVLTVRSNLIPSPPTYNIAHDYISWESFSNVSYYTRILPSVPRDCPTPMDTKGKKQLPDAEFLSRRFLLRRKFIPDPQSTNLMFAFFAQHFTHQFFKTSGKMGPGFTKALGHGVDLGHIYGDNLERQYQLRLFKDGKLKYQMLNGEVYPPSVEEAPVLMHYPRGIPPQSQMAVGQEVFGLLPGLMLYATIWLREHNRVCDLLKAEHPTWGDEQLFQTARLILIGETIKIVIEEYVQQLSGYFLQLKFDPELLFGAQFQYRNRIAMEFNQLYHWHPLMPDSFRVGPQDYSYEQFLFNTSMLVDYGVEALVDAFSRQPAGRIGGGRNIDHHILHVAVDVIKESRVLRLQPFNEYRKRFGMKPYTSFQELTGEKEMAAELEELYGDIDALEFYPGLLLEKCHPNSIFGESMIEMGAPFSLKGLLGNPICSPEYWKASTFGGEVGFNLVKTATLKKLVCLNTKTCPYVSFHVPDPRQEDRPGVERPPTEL
Procedure: (§1) That is, a test sample (20 μl), an enzyme solution (20 μl) and distilled water (10 μl) were added to 100 mM Tris-HCl buffer (pH 8, 140 μl) containing hematin (2 μM) and tryptophan (5 mM), and the mixture was thoroughly stirred, which was followed by preincubation at 24° C. for 5 minutes. Then, a ^1 4 C arachidonic acid solution (10 μl) was added and the mixture was reacted at 24° C., whereafter a solution (40 μl) of ethyl ether/methanol/1 M citric acid (30/4/1) ice-cooled to -20° C. was added to stop the reaction.

[2] = target: T2, human cyclooxygenase-2 (COX-2) (Homo sapiens, UniProt P35354); test: inhibitory activity on cyclooxygenase-2 (Experimental Example 1-2, human COX-2 expressed by yeast); type: biochemical
T2 construct: made in house
T2 sequence (P35354 18-604): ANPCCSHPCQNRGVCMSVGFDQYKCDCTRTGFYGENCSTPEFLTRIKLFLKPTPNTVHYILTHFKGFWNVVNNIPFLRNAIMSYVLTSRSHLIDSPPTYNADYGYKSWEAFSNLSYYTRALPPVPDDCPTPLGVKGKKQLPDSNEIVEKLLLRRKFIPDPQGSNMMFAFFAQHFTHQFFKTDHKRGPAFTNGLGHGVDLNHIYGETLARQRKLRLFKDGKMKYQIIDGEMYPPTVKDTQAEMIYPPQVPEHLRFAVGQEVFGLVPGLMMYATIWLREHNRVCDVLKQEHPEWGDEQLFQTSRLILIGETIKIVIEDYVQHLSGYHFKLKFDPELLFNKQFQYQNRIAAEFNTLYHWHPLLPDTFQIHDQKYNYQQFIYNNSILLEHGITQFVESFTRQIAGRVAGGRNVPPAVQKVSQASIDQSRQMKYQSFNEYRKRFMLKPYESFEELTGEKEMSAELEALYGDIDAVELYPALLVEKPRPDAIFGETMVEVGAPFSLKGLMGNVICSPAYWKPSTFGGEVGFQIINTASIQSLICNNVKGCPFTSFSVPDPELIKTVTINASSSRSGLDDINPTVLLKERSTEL
Procedure: as §1

[3] = target: T3, cyclooxygenase-1 (COX-1) (Homo sapiens, UniProt P23219); test: inhibitory activity on cyclooxygenase-1 (Experimental Example 1-2, enzyme prepared from human platelets); type: biochemical; details: COX-1 prepared from human platelets
T3 construct: an enzyme prepared from human platelets; from tissue; host or cells: human platelets
Procedure: as §1

[4] = target: T4, cyclooxygenase-2 (COX-2) (Ovis aries, UniProt P79208); test: inhibitory activity on cyclooxygenase-2 (Experimental Example 1-1, sheep placenta solubilized fraction); type: biochemical; details: for IC50: sheep placenta COX-2, pH 8, 24° C.; for inhibition at 100 µM: sheep placenta COX-2, inhibition at 100 μM test compound
T4 sequence (P79208 17-603): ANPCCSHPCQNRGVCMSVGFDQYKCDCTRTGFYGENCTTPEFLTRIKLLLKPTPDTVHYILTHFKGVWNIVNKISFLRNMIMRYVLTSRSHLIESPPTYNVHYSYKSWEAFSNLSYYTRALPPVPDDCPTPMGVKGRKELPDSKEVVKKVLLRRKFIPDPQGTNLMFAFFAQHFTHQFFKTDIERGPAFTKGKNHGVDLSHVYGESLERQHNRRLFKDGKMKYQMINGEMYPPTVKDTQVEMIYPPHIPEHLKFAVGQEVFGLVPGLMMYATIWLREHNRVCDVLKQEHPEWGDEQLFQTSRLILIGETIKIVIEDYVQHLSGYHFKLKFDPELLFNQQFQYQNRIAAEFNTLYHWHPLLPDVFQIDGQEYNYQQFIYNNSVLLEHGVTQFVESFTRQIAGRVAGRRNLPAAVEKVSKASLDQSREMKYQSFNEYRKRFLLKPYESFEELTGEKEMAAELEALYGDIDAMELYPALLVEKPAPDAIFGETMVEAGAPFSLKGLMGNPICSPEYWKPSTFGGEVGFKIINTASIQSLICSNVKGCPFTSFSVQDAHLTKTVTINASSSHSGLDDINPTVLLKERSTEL
Procedure: as §1

[5] = system: carrageenin-induced paw edema; test: effects on carrageenin-induced paw edema in rats (Experimental Example 2); type: in vivo, male Donryu rats; details: Rattus norvegicus, po, 3 h
Procedure: Carrageenin (1%, 0.05 ml) dissolved in physiological saline was subcutaneously injected to the left hind paw of male Donryu rats to induce paw edema. The degree of paw edema was evaluated by measuring the volume of the paw 3 hours after carrageenin administration. […] Inhibitory activity was expressed by the dose (ED30) of the test compound necessary for inhibiting by 30% relative to the control group.

[6] = effects on gastric ulcer formation in rats (Experimental Example 3); design: species or system male Donryu rats; details: rat, in vivo
Procedure: A test compound (100 mg/kg) was orally administered (10 ml/kg) to male Donryu rats. Six hours later, the stomach of the rats was exposed and fixed with 0.1% formalin. The stomach was opened and the degree of ulcer formation was evaluated.

T3 sequence (P23219 24-599): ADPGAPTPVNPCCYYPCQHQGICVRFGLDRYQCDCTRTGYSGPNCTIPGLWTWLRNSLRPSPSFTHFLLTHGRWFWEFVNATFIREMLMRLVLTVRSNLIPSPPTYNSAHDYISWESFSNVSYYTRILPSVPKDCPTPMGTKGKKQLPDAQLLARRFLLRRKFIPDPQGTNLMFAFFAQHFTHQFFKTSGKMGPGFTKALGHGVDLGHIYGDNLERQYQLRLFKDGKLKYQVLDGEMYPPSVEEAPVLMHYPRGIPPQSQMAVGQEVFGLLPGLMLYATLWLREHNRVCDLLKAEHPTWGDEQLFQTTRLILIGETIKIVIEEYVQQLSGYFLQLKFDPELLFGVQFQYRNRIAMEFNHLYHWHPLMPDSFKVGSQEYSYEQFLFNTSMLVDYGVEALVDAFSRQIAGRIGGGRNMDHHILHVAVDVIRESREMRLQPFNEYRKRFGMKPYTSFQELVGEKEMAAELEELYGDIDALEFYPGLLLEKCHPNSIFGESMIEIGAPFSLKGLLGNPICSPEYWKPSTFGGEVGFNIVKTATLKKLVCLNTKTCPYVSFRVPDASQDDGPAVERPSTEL

SMILES	IC50 [4]	inhibition at 100 µM [1]	ED30 [5]	other results
Cc1nc(C2CCCCCC2)c(-c2ccc(S(C)(=O)=O)cc2)o1 [Example 7, 4-cycloheptyl-2-methyl-5-(4-methylsulfonylphenyl)oxazole]	–	–	–	IC50 [1]: 2 µM
Cc1nc(-c2ccc(Cl)s2)c(-c2ccc(S(N)(=O)=O)cc2)o1 [Example 13, 5-(4-Aminosulfonylphenyl)-4-(5-chloro-2-thienyl)-2-methyloxazole]	–	–	–	IC50 [2]: 0.02 µM; IC50 [3]: 0.6 µM
Cc1nc(C2CCCCC2)c(-c2ccc(S(N)(=O)=O)cc2)o1 [Example 14, 5-(4-Aminosulfonylphenyl)-4-cyclohexyl-2-methyloxazole]	1.5 µM	–	4.5 mg/kg	IC50 [1]: > 100 µM; IC50 [2]: 0.07 µM; TD50 at 6 h ([6]; po): > 100 mg/kg
Cc1nc(C2CCCCC2)c(-c2ccc(S(C)(=O)=O)cc2)o1 [Example 1, 4-Cyclohexyl-2-methyl-5-(4-methylsulfonylphenyl)oxazole]	–	11%	5.4 mg/kg	TD50 at 6 h ([6]; po): > 100 mg/kg
Cc1nc(-c2cccs2)c(-c2ccc(S(C)(=O)=O)cc2)o1 [11(A), 5-(4-methylsulfonylphenyl)-2-methyl-4-(2-thienyl)oxazole]	50 µM	14%	9.5 mg/kg	–
Cc1nc(-c2ccc(Cl)s2)c(-c2ccc(S(C)(=O)=O)cc2)o1 [10(A), 4-(5-chloro-2-thienyl)-2-methyl-5-(4-methylsulfonylphenyl)oxazole]	0.2 µM	13%	5.4 mg/kg	IC50 [2]: 0.03 µM; IC50 [3]: 12.5 µM; TD50 at 6 h ([6]; po): > 100 mg/kg
Cc1nc(-c2ccc(C)s2)c(-c2ccc(S(C)(=O)=O)cc2)o1 [2(A), 5-(4-methylsulfonylphenyl)-2-methyl-4-(5-methyl-2-thienyl)oxazole]	0.4 µM	–	10.8 mg/kg	IC50 [1]: 50 µM; IC50 [2]: 0.04 µM; IC50 [3]: 47.5 µM; TD50 at 6 h ([6]; po): > 100 mg/kg
CS(=O)(=O)c1ccc(-c2oc(-c3ccccc3)nc2C2CCCCC2)cc1 [Example 12, 2-phenyl-4-cyclohexyl-5-(4-methylsulfonylphenyl)oxazole, reference compound]	–	–	–	inhibition at 100 µM [4]: 16%; IC50 [1]: > 100 µM
Cc1nc(-c2ccc(S(C)(=O)=O)cc2)c(-c2ccc(Cl)s2)o1 [10(B), 5-(5-chloro-2-thienyl)-2-methyl-4-(4-methylsulfonylphenyl)oxazole]	30 µM	57%	–	–
CCc1nc(C2CCCCC2)c(-c2ccc(S(C)(=O)=O)cc2)o1 [Example 3, 4-Cyclohexyl-2-ethyl-5-(4-methylsulfonylphenyl)oxazole]	< 1 µM	18%	–	–
Cc1nc(-c2ccc(S(C)(=O)=O)cc2)c(-c2cccs2)o1 [11(B), 4-(4-methylsulfonylphenyl)-2-methyl-5-(2-thienyl)oxazole]	–	6%	–	inhibition at 100 µM [4]: 2%
Cc1nc(-c2ccc(S(C)(=O)=O)cc2)c(-c2ccc(C)s2)o1 [2(B), 4-(4-methylsulfonylphenyl)-2-methyl-5-(5-methyl-2-thienyl)oxazole]	80 µM	10%	–	–
COc1ccc2c(c1)c(CC(=O)O)c(C)n2C(=O)c1ccc(Cl)cc1 [indomethacin, reference compound]	–	–	2.9 mg/kg	TD50 at 6 h ([6]; oral, stomach examined six hours later, read-out: gastric ulcer formation in rats): 10 mg/kg
CNS(=O)(=O)c1ccc(-c2oc(C)nc2C2CCCCC2)cc1 [Example 15, 4-Cyclohexyl-2-methyl-5-(4-methylaminosulfonylphenyl)oxazole]	–	–	–	IC50 [2]: 4 µM
Cc1nc(C2CCCC2)c(-c2ccc(S(C)(=O)=O)cc2)o1 [Example 6, 4-cyclopentyl-2-methyl-5-(4-methylsulfonylphenyl)oxazole]	–	–	–	inhibition at 100 µM [4]: 18%; IC50 [1]: 50 µM

Further lines, with some results ahead:

IC50 [4]	inhibition at 100 µM [1]	SMILES	ED30 [5]	other results
–	2%	Cc1nc(-c2ccsc2)c(-c2ccc(S(C)(=O)=O)cc2)o1 [Example 9, 5-(4-methylsulfonylphenyl)-2-methyl-4-(3-thienyl)oxazole]	–	inhibition at 100 µM [4]: 35%
–	7%	Cc1nc(-c2ccco2)c(-c2ccc(S(C)(=O)=O)cc2)o1 [Example 8, 4-(2-furyl)-2-methyl-5-(4-methylsulfonylphenyl)oxazole]	–	inhibition at 100 µM [4]: 7%
10 µM	5%	CC1=CCC(c2nc(C)oc2-c2ccc(S(C)(=O)=O)cc2)CC1 (centres unmarked) [Example 5]	–	–
4 µM	26%	Cc1nc(C2CCC(C)CC2)c(-c2ccc(S(C)(=O)=O)cc2)o1 (centres unmarked) [Example 4, 5-(4-methylsulfonylphenyl)-2-methyl-4-(4-methylcyclohexyl)oxazole]	–	IC50 [3]: > 100 µM
